Assay results reported in article PMC11875179, “A fucose-binding superlectin from Enterobacter cloacae with high Lewis and ABO blood group antigen specificity” (The Journal of Biological Chemistry, 2024).

Tests used:
[1] = target: T1, Enterobacter cloacae lectin A (EclA) (Enterobacter cloacae, UniProt A0A0H3CQ33); test: competitive fluorescence polarization; thermal shift (Tm […] to […] °C); assay type: binding; design: gene ECL_04191; full-length EclA and EclA-C (amino acids 140–283)
[2] = target: T1, Enterobacter cloacae lectin A (EclA); test: competitive fluorescence polarization displacement of […]; assay type: binding; design: gene ECL_04191; full-length EclA and EclA-C (amino acids 140–283)
[3] = target: the molecule itself; test: dynamic light scattering; Zetasizer Nano-ZS; 100 uM EclA-L or 200 uM EclA-N-tag and EclA-C in TBS/Ca (20 mM Tris, 137 mM NaCl, 2.6 mM KCl, pH 7.4, 1 mM CaCl2), 25 C; molecular weight estimated from the hydrodynamic radius

T1 sequence (A0A0H3CQ33 entry or part of it): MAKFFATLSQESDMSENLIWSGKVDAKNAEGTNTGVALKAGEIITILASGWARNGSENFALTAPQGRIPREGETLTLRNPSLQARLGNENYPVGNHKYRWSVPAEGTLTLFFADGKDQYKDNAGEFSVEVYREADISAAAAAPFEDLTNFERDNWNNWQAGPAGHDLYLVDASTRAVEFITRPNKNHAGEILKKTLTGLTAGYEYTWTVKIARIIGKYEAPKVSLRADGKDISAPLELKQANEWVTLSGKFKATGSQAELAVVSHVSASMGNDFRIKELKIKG

Molecule	IC50 [2] [µM]	stoichiometry N [3]	also measured
C[C@@H]1OC(O)[C@@H](O)[C@H](O)[C@@H]1O (stereo partly drawn) [compound 1, L-fucose]	–	–	IC50 [1]: 4000 to 4700 µM
CO[C@@H]1O[C@@H](C)[C@@H](O)[C@@H](O)[C@@H]1O [compound 12, methyl α-L-fucoside]	1300 to 1400	–	–
CO[C@H]1O[C@@H](C)[C@@H](O)[C@@H](O)[C@@H]1O [compound 13, methyl β-L-fucoside]	1500 to 1800	–	–
EclA-C, native EclA C terminus (amino acids 140-283) (domain or fragment, EclA, E. cloacae subsp. cloacae ATCC 13047, stated as amino acids 140-283 (144 aa); Tag-free; a selenomethionine-labelled form was also crystallised; also called C-terminal domain of EclA; source: E. coli BL21(DE3), purified (fucose-coupled sepharose, L-fucose elution)) MAAPFEDLTNFERDNWNNWQAGPAGHDLYLVDASTRAVEFITRPNKNHAGEILKKTLTGLTAGYEYTWTVKIARIIGKYEAPKVSLRADGKDISAPLELKQANEWVTLSGKFKATGSQAELAVVSHVSASMGNDFRIKELKIKG	–	2	–
EclA-L (EclA-M14A), full-length Enterobacter cloacae lectin A with the second start codon mutated (natural protein, EclA (Enterobacter cloacae lectin A), E. cloacae subsp. cloacae ATCC 13047, ECL_04191, 283 aa, with M14A; Tag-free, pET22b; Made to have one protein species only (second ATG at codon 14 removed); also called EclA-L (M14A); source: E. coli, expressed and purified as reported for EclA) MAKFFATLSQESDASENLIWSGKVDAKNAEGTNTGVALKAGEIITILASGWARNGSENFALTAPQGRIPREGETLTLRNPSLQARLGNENYPVGNHKYRWSVPAEGTLTLFFADGKDQYKDNAGEFSVEVYREADISAAAAAPFEDLTNFERDNWNNWQAGPAGHDLYLVDASTRAVEFITRPNKNHAGEILKKTLTGLTAGYEYTWTVKIARIIGKYEAPKVSLRADGKDISAPLELKQANEWVTLSGKFKATGSQAELAVVSHVSASMGNDFRIKELKIKG	–	2	–
EclA-N-tag, N-terminally His6-tagged EclA N terminus (amino acids 2-140) (domain or fragment, EclA, E. cloacae subsp. cloacae ATCC 13047, residues 2-140, based on EclA-L (M14A); also called N-terminal domain of EclA; not shown: His6, N-terminal, kept) AKFFATLSQESDASENLIWSGKVDAKNAEGTNTGVALKAGEIITILASGWARNGSENFALTAPQGRIPREGETLTLRNPSLQARLGNENYPVGNHKYRWSVPAEGTLTLFFADGKDQYKDNAGEFSVEVYREADISAAA	–	2	–
